The target of assay [1] is T1, SMO (Mus musculus, UniProt P56726).
T1 construct: host or cells: NIH 3T3 Gli-RE
The note with it: literature value, cited from earlier work; for IC50: read-out: Gli-RE-luciferase assay IC50.

Another assay deals with Hh/SMO pathway. Put plainly: Gli-Luciferase functional assay, NIH 3T3 Gli-RE cells stimulated with ShhN. In kind it is cell-based. The note with it: for Inhibition of ShhN-induced Hh signaling (in words): NIH 3T3 Gli-RE cells, ShhN stimulated; for Span of concentration response curve: data as percent of the maximum luminescence in the absence of antagonists, Fig 4. As to the method:
After 24 hours, when the cells reached confluency, the culture medium was replaced with 80 μL per well of assay medium [Optimem ± 10 mM HEPES ± 1 mM Sodium Pyruvate + 1× MEM NEAA]. […] Then the cells were stimulated by addition of either ShhN-conditioned media or control media (DMEM±10%BCS) at a final concentration of 10%. Following incubation of the plate for at least 28 hours at 37°C, the cells were simultaneously lysed and supplemented with a luciferase substrate by addition of equal volume of Steady-Glo reagent (Promega, E2520) directly to the assay media. Plates were mixed by pipetting, centrifuged to eliminate foam, incubated for 10 minutes, and analyzed using Perkin Elmer Viktor X luminescence plate reader. The results were analyzed using a non-linear regression (Prism 6, GraphPad Software, La Jolla, CA). Data were normalized to the maximal response observed for ShhN-stimulated cells in the same experiment. A sigmoidal-dose response curve was used as a model for data analysis and IC50 value calculation.

The next assay deals with T2, mSMO (Mus musculus, UniProt P56726).
T2 construct: host or cells: HEK293T
Description: BODIPY-Cyclopamine competition binding assay, flow cytometry, HEK293T cells transiently transfected with mSMO. The note with it: BODIPY-Cyclopamine 5 nM. As to the method:
Prior to transfection, cell culture media was replaced with DMEM + 10%FBS for mSMO transfection and with DMEM + 10%BCS for ShhN transfection. The transfected dish was incubated for approximately 24 hours at 37°C. For the production of ShhN conditioned medium, the culture medium from ShhN-transfected HEK293T cells was collected, aliquoted in single use 1.5 mL Eppendorf tubes and either used fresh or stored at -20°C.
HEK293T cells transiently transfected with mSMO were lifted with trypsin (0.25%) and replated at 6×10^4 cells in 80 μL DMEM + 10%FBS per well in a 96 well tissue-culture treated plate (Falcon, 353219). The plate was incubated at 37°C for 24 hours. Serial dilutions of test compounds (10x final concentrations) were prepared in culture media. 10 μL of diluted compounds or control media were added to the plate after which the plate was incubated at 37°C for 10 min. […] Following at least 1.5 hours incubation at 37°C in 5% CO2, cells were lifted by vigorous pipetting, transferred to conical bottom 96-well plates, and centrifuged at 400 × g for 5 min at 4°C. Supernatant was discarded, cells were re-suspended in 300 μL of PBS + 0.5% BSA (freshly prepared), and the plate was analyzed with Guava benchtop flow cytometer. The results were interpreted with FlowJo software (version v10.1). Dose response curves were constructed in Prism 6 (GraphPad Software, La Jolla, CA).

The test system of assay [2] is MB-PDX cells. Description: Neurosphere formation assay. In kind it is cell-based, human. The note with it: MB-PDX, 10 μM, at least 7 days, 1–2 cells per well.
Description: (§2) The final concentration of test compounds in the wells was 10 μM. Cells were incubated at 37 °C for at least seven days. After incubation percent of wells positive with neural stem cell-derived sphere colonies were calculated for each test condition and compared.
The test system of assay [3] is DAOY cells. Put plainly: Neurosphere formation assay. Conditions: DAOY, 10 μM, at least 7 days, 1–2 cells per well. It counts as cell-based, human.
Description: as §2
Assay [4] relates to nuclear Gli-1 in DAOY cells. Put plainly: Western blot quantitation of nuclear Gli-1. Conditions: NS conditions, 24-hour treatment, 5 μM (Fig 6f, S4 Fig). It counts as cell-based, human. As to the method:
(§1) Nuclear fractions were prepared from cell pellets according to the method of Schreiber et. al.[81] with minor modifications. […] After 24 hours, cells were lifted from the wells by pipetting, transferred to 1.5 mL Eppendorf tubes, centrifuged at 10,000 x g for 1 minutes at 4°C, and washed once in PBS. Following supernatant removal by vacuum, cells were lysed using a plasma membrane lysis buffer [10 mM HEPES; pH 7.5, 10 mM KCl, 0.1 mM EDTA, 1 mM dithiothreitol (DTT), 0.5% Nonidet P‐40 and 0.5 mM PMSF along with 1× protease inhibitor cocktail (Sigma)] and allowed to swell on ice for 15‐20 min with intermittent mixing. Next, tubes were vortexed to disrupt cell membranes and then centrifuged at 12,000 × g at 4°C for 10 min. […] The pelleted nuclei were washed with the plasma membrane lysis buffer and re-suspended in the nuclear extraction buffer [20 mM HEPES (pH 7.5), 400 mM NaCl, 1 mM EDTA, 1 mM DTT, 1 mM PMSF with 1× protease inhibitor cocktail] and incubated on ice for 30 min. The tubes were centrifuged at 12,000 ×g for 25 min at 4°C and the supernatant (now containing the soluble fraction of the cell nuclei) was collected. Total protein concentrations were determined using the Bio-Rad Protein Assay (Bio-Rad, Hercules, CA). Nuclear extracts containing the total of 40 μg protein were separated on a 10% Tris-SDS PAGE gel (Bio-Rad Mini-PROTEAN® TGX). Gels were transferred on nitrocellulose membranes using Bio-Rad TransBlot system, after which the membranes were blocked in the blocking buffer [5% nonfat dry milk in 1× Tris Buffer Saline + 0.1% Tween 20 (TBST)] for 2 hours at room temperature. Following blocking, the membranes were washed four times with TBST (5 minutes gentle rocking per wash) and incubated overnight with primary antibody Rabbit anti-Gli-1 (Cell signaling, #C68H3); 1:250 dilution in TBST-Milk at 4°C with gentle rocking. Membranes were washed three times with TBST for 5 min each.
On the technique in general: Immunoblotting shows a protein as a band on a membrane.

The subject of assay [5] is nuclear Gli-1 in MB-PDX cells. Description: Western blot quantitation of nuclear Gli-1. The note with it: NS conditions, 24-hour treatment, 5 μM (Fig 6f, S4 Fig). In kind it is cell-based, human. The method, then: as §1
Assay [6] relates to firefly luciferase under control of cAMP response element (CRE). Description: CRE-luciferase counter assay in HEK293s cells. In kind it is cell-based. The note with it: different concentrations. The method, then:
(a) The drugs were tested at different concentrations in HEK293s cells stably transfected with firefly luciferase under control of cAMP response element (CRE) (pGL4.29[luc2P/CRE/Hygro], Promega). […] Raw, non-normalized luminescence values are presented, to facilitate the assessment of the extent of inhibition. Shown is a single representative experiment out of the multiple experiments performed on different days. (Mean ± SD)

Assay [7] concerns MB-PDX cells. Description: cells. The note with it: Homo sapiens, 72 h, read-out: Cell viability assay IC50.
The target in assay [8] is T1, SMO. Put plainly: Competitive functional inhibition assay against SAG, Gli-Luciferase, NIH 3T3 Gli-RE cells. In kind it is cell-based. Conditions: read-out: EC50 of SAG (printed as IC50 in Fig 5c); SAG alone. As to the method: After 24 hours, when the cells reached confluency, the culture medium was replaced with 80 μL per well of assay medium [Optimem ± 10 mM HEPES ± 1 mM Sodium Pyruvate + 1× MEM NEAA]. […] Following incubation of the plate for at least 28 hours at 37°C, the cells were simultaneously lysed and supplemented with a luciferase substrate by addition of equal volume of Steady-Glo reagent (Promega, E2520) directly to the assay media. Plates were mixed by pipetting, centrifuged to eliminate foam, incubated for 10 minutes, and analyzed using Perkin Elmer Viktor X luminescence plate reader. The results were analyzed using a non-linear regression (Prism 6, GraphPad Software, La Jolla, CA). Data were normalized to the maximal response observed for ShhN-stimulated cells in the same experiment. A sigmoidal-dose response curve was used as a model for data analysis and IC50 value calculation.

For a further assay, the system named is MB-PDX and DAOY cells. Description: alamarBlue cell viability assay, adherent versus NS conditions. In kind it is cell-based, human. As to the method:
The results were analyzed using a non-linear regression (Prism 6, GraphPad Software, La Jolla, CA).
A general note: Alamar Blue is a resazurin reagent that responds to reducing activity.

For assay [9], the system named is DAOY cells. Put plainly: cells. Conditions: Homo sapiens, 72 h, read-out: Cell viability assay IC50.
[10] abbreviates: Mus musculus, NIH3T3, NIH3T3 Gli-RE cells, ShhN-conditioned media, n = 3, read-out: Hh/SMO pathway inhibition IC50.
Setting [11] is: NIH3T3 Gli-RE cells, ShhN-conditioned media, n = 3, read-out: Hh/SMO pathway inhibition IC50.

The structures appear in SMILES notation. Where two headings read alike, the source gives them in different places.

T2 sequence (P56726 33-793): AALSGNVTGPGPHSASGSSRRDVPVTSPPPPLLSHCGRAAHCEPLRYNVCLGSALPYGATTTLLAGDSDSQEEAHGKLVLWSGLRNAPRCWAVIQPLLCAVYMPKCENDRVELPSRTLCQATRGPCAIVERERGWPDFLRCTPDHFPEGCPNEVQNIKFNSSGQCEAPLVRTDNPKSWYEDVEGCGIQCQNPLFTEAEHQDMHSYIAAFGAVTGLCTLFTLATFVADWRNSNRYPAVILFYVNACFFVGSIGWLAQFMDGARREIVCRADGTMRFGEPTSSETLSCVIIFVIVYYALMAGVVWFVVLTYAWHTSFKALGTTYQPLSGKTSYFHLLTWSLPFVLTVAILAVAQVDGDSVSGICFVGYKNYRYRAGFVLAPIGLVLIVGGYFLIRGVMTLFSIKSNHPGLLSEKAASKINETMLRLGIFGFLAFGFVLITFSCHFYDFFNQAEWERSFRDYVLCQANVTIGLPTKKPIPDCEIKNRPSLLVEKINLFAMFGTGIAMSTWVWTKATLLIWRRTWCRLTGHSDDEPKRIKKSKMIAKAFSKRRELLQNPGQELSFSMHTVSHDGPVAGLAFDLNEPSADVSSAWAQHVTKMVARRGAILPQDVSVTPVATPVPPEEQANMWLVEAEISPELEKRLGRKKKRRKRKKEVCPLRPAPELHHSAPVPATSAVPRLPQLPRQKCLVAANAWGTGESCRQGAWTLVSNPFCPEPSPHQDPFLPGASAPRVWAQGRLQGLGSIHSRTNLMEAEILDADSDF
T1 sequence (P56726 33-793): as above

Take `C[C@@]12CN(C(=O)Nc3ccnn3-c3ccccc3)CCN1C(=O)N([C@H]1C[C@@H]1c1ccccc1)C2=O` [MK_5710, (8aS)-8a-methyl-1,3-dioxo-2-[(1S,2R)-2-phenylcyclopropyl]-N-(1-phenyl-1H-pyrazol-5-yl)hexahydroimid azo[1,5-a]pyrazine-7(1H)-carboxamide]: the IC50 on SMO [1] was 17 nM.

With `CC1=C2C[C@H]3[C@@H](CC[C@@H]4C[C@H](NS(C)(=O)=O)CC[C@@]43C)[C@@H]2CC[C@@]2(C1)O[C@@H]1C[C@H](C)CN[C@H]1[C@H]2C` [Saridegib], the IC50 at SMO [1] is 9 nM.

As to `Cc1csc(CN[C@@H]2Cc3ccc(NC(=O)c4cccc(C)c4-c4ccc(C(F)(F)F)cc4)cc3C2)n1` [23b_ NV, 3-methyl-N-[(2R)-2-[(4-methyl-1,3-thiazol-2-yl)methylamino]-2,3-dihydro-1H-inden-5-yl]-2-[4-(trifluoromethyl)phenyl]benzamide], the IC50 at SMO [1] is 17 nM.

With `CN(C(=O)c1ccc(F)cc1C(F)(F)F)C1CCN(c2nnc(-c3ccnn3C)c3ccccc23)CC1` [Taladegib (LY2940680), Taladegib], the IC50 on SMO [1] was 2.6 nM.

In the case of `CS(=O)(=O)Nc1ccc([N+](=O)[O-])cc1Oc1ccccc1` [Nimesulide], in the assay with Hh/SMO pathway, the “Inhibition of ShhN-induced Hh signaling (in words)” value (“Inhibition … (in words)” below) is “inactive” and the “Span of concentration response curve” value is given as -3.874. For the same molecule, on mSMO, the “Displacement of BODIPY-Cyclopamine from SMO (in words)” value (“Displacement of BODIPY-Cyclopamine” for short) was “no effect”.

Take `COC(=O)Nc1nc2ccc(C(=O)c3ccccc3)cc2[nH]1` [Mebendazole]: in the assay with Hh/SMO pathway (setting [10]), the IC50 was 327 nM. Besides, in the assay on Hh/SMO pathway, the “Inhibition … (in words)” value is “inhibited ShhN-induced Hh signaling in a dose-dependent manner” and the “Span of concentration response curve” value stood at 108.1. Besides, the IC50 in the assay on Hh/SMO pathway (setting [11]) was 328 nM. For the same molecule, the “Displacement of BODIPY-Cyclopamine” value on mSMO is “no effect”.

Consider `CS(=O)(=O)c1ccc(C(=O)Nc2ccc(Cl)c(-c3ccccn3)c2)c(Cl)c1` [Vismodegib], for which the IC50 in the assay on Hh/SMO pathway (setting [10]) amounted to 4.08 nM; with Hh/SMO pathway (setting [11]), 4 nM; with MB-PDX cells [7], 52 µM. Moreover, the “Inhibition of NS formation, wells” value in the assay on MB-PDX cells [2] and in the assay with DAOY cells [3] was “ineffective” in each case. Further, the “Nuclear Gli-1, mean, % of untreated samples” value in [4] came out at 75%; in assay [5], 67%. The “Effect on CRE-driven luciferase activity (independent of SMO)” value in assay [6] is “lack of dose-dependent effect”.

On to `CCC(C)n1ncn(-c2ccc(N3CCN(c4ccc(OCC5COC(Cn6cncn6)(c6ccc(Cl)cc6Cl)O5)cc4)CC3)cc2)c1=O` (stereo not drawn) [Itraconazole], for which the IC50 on SMO [1] was 800 nM.

As to `Cc1c(C(=O)Nc2ccc(N3C[C@@H](C)O[C@@H](C)C3)nc2)cccc1-c1ccc(OC(F)(F)F)cc1` [Sonidegib (NVP-LDE225), Sonidegib], the IC50 at SMO [1] is 2.5 nM.

As for `Cc1nn(-c2ccccc2)c(C)c1/C=N/N1CCN(Cc2ccccc2)CC1` [SANT-1], the IC50 at SMO [1] is 20 nM.

`CC1=C2C[C@H]3[C@@H](CC=C4C[C@@H](O)CC[C@@]43C)[C@@H]2CC[C@]12O[C@@H]1C[C@H](C)CN[C@H]1[C@H]2C` [Cyclopamine]: the IC50 in the assay on Hh/SMO pathway (Mus musculus, NIH3T3, read-out: Hh/SMO pathway inhibition IC50, NIH3T3 Gli-RE cells, ShhN-conditioned media, n = 3) is 189 nM; with Hh/SMO pathway (read-out: Hh/SMO pathway inhibition IC50, NIH3T3 Gli-RE cells, ShhN-conditioned media, n = 3), 189 nM. The “Span of concentration response curve” value in the assay on Hh/SMO pathway turned out to be 105.7.

Turning to `CNC1CCC(N(Cc2cccc(-c3ccncc3)c2)C(=O)c2sc3ccccc3c2Cl)CC1` (stereo not drawn) [SAG], the concentration giving a half-maximal response (EC50) on SMO [8] was 79 nM; at SMO [1] (read-out: Gli-RE-luciferase assay EC50 (for SAG the value is EC50 not IC50), agonist), 3 nM.

Take `C#Cc1cccc(Nc2ncnc3cc(OCCOC)c(OCCOC)cc23)c1` [Erlotinib]: the “Effect on cell viability (in words)” value with MB-PDX and DAOY cells is “did not affect cell viability under any condition”. The “Inhibition of NS formation, wells” value with MB-PDX cells [2] and in the assay with DAOY cells [3] was “ineffective” each time. Also, the IC50 in the assay with DAOY cells [9] turned out to be 11 µM.

With `O=C1CCC(N2C(=O)c3ccccc3C2=O)C(=O)N1` (stereo not drawn) [Thalidomide], in the assay on Hh/SMO pathway, the “Inhibition … (in words)” value was “inactive” and the “Span of concentration response curve” value is given as -12.85. In addition, the “Displacement of BODIPY-Cyclopamine” value on mSMO is reported as “no effect”.

Take `CNCc1ccc(C)c(NC(=O)c2ccc(Nc3nc(-c4ccccc4)c4ccccc4n3)cc2)c1` [BMS_833923]: the IC50 at SMO [1] is 6 to 35 nM.

One may read the EC50 as the midpoint of the concentration-response curve.

Values taken from paper PMC6754133 (PLoS ONE, 2019).
